Reference: the supplement of paper PMC11061612

Experiments:
Experiment in all cases: Bliss excess, mean over the matrix (fraction); higher = more synergy
[1] = tested on: KINGS-1 (Low Grade Glioma)
Outline: (§1)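 After 24 hours at 37°C and 5% CO2 in 1536-well plates, cells in DMEM/F12 or RPMI plus 10% FBS received two-drug dose matrices for 72 hours. Viability came from CellTiter-Glo 2.0 luminescence and was scaled as inhibition, anchored at 0 by vehicle wells and at 1 by blank wells. Combination Emax is taken as the second-highest inhibition in the matrix, and Bliss excess as the observed combination effect less EA + EB − EA·EB, with EA and EB the single-agent effects.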

[2] = tested on: TGBC11TKB (Gastric Carcinoma)
Outline: as §1

[3] = tested on: NCI-N87 (Gastric Carcinoma)
Outline: as §1

[4] = tested on: NCI-H2405 (Lung Adenocarcinoma)
Outline: as §1

GOTO (Neuroblastoma) = tested on: GOTO (Neuroblastoma)
Outline: as §1

[5] = tested on: OCUM-1 (Gastric Carcinoma)
Outline: as §1

[6] = tested on: NCI-H1573 (Lung Adenocarcinoma)
Outline: as §1

NB7 (Neuroblastoma) = tested on: NB7 (Neuroblastoma)
Outline: as §1

[7] = tested on: MFE-319 (Endometrial Carcinoma)
Outline: as §1

NH-12 (Neuroblastoma) = tested on: NH-12 (Neuroblastoma)
Outline: as §1

BT-20 (Breast Carcinoma) = tested on: BT-20 (Breast Carcinoma)
Outline: as §1

[8] = tested on: OCUB-M (Breast Carcinoma)
Outline: as §1

[9] = tested on: LC4-1 (B-Lymphoblastic Leukemia)
Outline: as §1

[10] = tested on: KLE (Endometrial Carcinoma)
Outline: as §1

[11] = tested on: KYSE-150 (Esophageal Squamous Cell Carcinoma)
Outline: as §1

[12] = tested on: ASH-3 (Thyroid Gland Carcinoma)
Outline: as §1

[13] = tested on: JHH-7 (Hepatocellular Carcinoma)
Outline: as §1

[14] = tested on: VMRC-LCD (Lung Adenocarcinoma)
Outline: as §1

[15] = tested on: OVISE (Ovarian Carcinoma)
Outline: as §1

[16] = tested on: HuP-T3 (Pancreatic Carcinoma)
Outline: as §1

`CCc1c2c(nc3ccc(O)cc13)-c1cc3c(c(=O)n1C2)COC(=O)[C@]3(O)CC` [SN-38] + O=C(c1cc(Cc2n[nH]c(=O)c3ccccc23)ccc1F)N1CCN(C(=O)C2CC2)CC1 [Olaparib] (first compound max 0.3 µM, 7x7, partner max 10 µM) was tested, and the Bliss excess [1] was 0.0161, the Bliss excess [2] was 0.0814 and the Bliss excess [3] was 0.0599. The Bliss excess [4] was 0.0105, the Bliss excess (GOTO (Neuroblastoma)) was -0.0014 and the Bliss excess [5] was 0.014. The Bliss excess [6] was -0.0085, the Bliss excess (NB7 (Neuroblastoma)) was 0.0625 and the Bliss excess [7] was 0.0328. For the same compound, the Bliss excess (NH-12 (Neuroblastoma)) was -0.0089, the Bliss excess (BT-20 (Breast Carcinoma)) was 0.107 and the Bliss excess [8] was 0.15. It also gave a Bliss excess [9] of 0.0234, a Bliss excess [10] of 0.0346 and a Bliss excess [11] of 0.0762. It also gave a Bliss excess [12] of 0.074, a Bliss excess [13] of 0.0299 and a Bliss excess [14] of -0.0163. It also gave a Bliss excess [15] of 0.0082 and a Bliss excess [16] of -0.0406.
